Assay results from patent US8637511B2, “Aminopyrimidines useful as kinase inhibitors” (Vertex Pharmaceuticals Incorporated, priority 2005, dated 2014).
Read-outs that look alike come from different tables or passages of the source.

Columns and labels:
Colo205 cells = assay: Analysis of cell proliferation and viability; format: cell-based; conditions: Homo sapiens, read-out: IC50 value
human Itk kinase = biological target: T1, human Itk kinase (Homo sapiens, UniProt Q08881); assay: Itk inhibition assay: radioactivity-based assay; format: biochemical; conditions: Ki(app)
T1 sequence (Q08881 1-620): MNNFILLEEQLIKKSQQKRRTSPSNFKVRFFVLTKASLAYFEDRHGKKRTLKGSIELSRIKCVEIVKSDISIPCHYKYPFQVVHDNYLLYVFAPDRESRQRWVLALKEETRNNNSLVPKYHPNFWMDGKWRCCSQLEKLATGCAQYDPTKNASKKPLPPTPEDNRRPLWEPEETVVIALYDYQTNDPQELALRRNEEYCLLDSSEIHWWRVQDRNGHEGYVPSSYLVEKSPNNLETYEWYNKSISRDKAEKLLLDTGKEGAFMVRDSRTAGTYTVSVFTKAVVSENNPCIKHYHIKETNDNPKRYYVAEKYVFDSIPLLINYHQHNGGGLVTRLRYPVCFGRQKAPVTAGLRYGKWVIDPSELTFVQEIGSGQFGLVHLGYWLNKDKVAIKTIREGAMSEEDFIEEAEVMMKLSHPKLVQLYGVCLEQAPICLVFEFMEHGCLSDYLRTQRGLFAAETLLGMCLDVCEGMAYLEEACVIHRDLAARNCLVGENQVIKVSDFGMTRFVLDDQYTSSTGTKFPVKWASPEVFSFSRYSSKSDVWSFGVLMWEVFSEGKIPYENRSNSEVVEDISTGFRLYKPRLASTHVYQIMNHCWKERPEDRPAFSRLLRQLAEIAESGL
Method: The compounds of the present invention were evaluated as inhibitors of human Itk kinase using a radioactivity-based assay. These compounds can also be evaluated using a spectrophotometric or alphascreen assay.
Assays were carried out in a mixture of 20 mM MOPS (pH 7.0), 10 mM MgCl2, 0.1% BSA and 1 mM DTT. Final substrate concentrations in the assay were 7.5 μM [γ-^33P]ATP (400 μCi ^33P ATP/μmol ATP, Amersham Pharmacia Biotech/Sigma Chemicals) and 3 μM peptide (SAM68 protein Δ332-443). Assays were carried out at 25° C. in the presence of 50 nM Itk. An assay stock buffer solution was prepared containing all of the reagents listed above, with the exception of ATP and the test compound of interest. 50 μL of the stock solution was placed in a 96 well plate followed by addition of 2 μL of DMSO stock containing serial dilutions of the test compound (typically starting from a final concentration of 50 μM with 2-fold serial dilutions) in duplicate (final DMSO concentration 2%). The plate was pre-incubated for 10 minutes at 25° C. and the reaction initiated by addition of 50 μL [γ-^33P]ATP (final concentration 7.5 μM).
The reaction was stopped after 10 minutes by the addition of 100 μL 0.2M phosphoric acid+0.01% TWEEN 20. A multiscreen phosphocellulose filter 96-well plate (Millipore, Cat no. MAPHNOB50) was pretreated with 100 μL 0.2M phosphoric acid+0.01% TWEEN 20 prior to the addition of 170 μL of the stopped assay mixture. The plate was washed with 4×200 μL 0.2M phosphoric acid+0.01% TWEEN 20. After drying, 30 μL Optiphase ‘SuperMix’ liquid scintillation cocktail (Perkin Elmer) was added to the well prior to scintillation counting (1450 Microbeta Liquid Scintillation Counter, Wallac).
Ki(app) data were calculated from non-linear regression analysis of the initial rate data using the Prism software package (GraphPad Prism version 3.0cx for Macintosh, GraphPad Software, San Diego Calif., USA).

Aurora-1 (Aurora B) = Aurora-1 (Aurora B) (Homo sapiens, UniProt Q96GD4); assay: Aurora-1 (Aurora B) inhibition assay (radiometric); format: biochemical; conditions: read-out: Aurora B kinase Ki value
Summary of the method: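 Radiometric ^33P incorporation into peptide substrate, with [γ-^33P]-ATP at 800 μM final, in 25 mM HEPES pH 7.5, 10 mM MgCl2, 0.1% BSA, 10% glycerol. Compound preincubated with enzyme for 10 min at 25° C, reaction run 3 h, then captured on phosphocellulose. Ki from initial rates by non-linear regression after background subtraction.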

Aurora-2 (Aurora A) = biological target: T2, Aurora-2 (Aurora A) (Homo sapiens, UniProt O14965); assay: Aurora-2 (Aurora A) inhibition assay, coupled enzyme; format: biochemical; conditions: read-out: Aurora A kinase Ki value
T2 sequence (O14965 1-403): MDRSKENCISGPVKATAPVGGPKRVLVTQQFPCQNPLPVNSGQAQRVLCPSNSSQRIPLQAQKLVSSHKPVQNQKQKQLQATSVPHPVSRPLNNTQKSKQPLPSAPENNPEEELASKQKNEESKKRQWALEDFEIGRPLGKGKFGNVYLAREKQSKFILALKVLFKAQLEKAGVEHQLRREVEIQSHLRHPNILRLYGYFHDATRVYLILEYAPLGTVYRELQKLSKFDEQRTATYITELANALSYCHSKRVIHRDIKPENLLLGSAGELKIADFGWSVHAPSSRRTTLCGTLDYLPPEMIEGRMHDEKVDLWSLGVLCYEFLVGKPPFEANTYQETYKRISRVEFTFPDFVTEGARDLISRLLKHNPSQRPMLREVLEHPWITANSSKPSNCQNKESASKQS
Summary of the method: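 Coupled pyruvate kinase/lactate dehydrogenase assay with NADH in pH 7.5 Hepes containing MgCl2, DTT and NaCl, using 40 nM Aurora-2 at 30 °C. After a 10 min preincubation, enzyme addition started the reaction, and initial rates were taken over 10 min. IC50 and Ki came from non-linear regression.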

JAK3 = biological target: T3, JAK3 (Homo sapiens, UniProt P52333); assay: biochemical
T3 sequence (P52333 1-1124): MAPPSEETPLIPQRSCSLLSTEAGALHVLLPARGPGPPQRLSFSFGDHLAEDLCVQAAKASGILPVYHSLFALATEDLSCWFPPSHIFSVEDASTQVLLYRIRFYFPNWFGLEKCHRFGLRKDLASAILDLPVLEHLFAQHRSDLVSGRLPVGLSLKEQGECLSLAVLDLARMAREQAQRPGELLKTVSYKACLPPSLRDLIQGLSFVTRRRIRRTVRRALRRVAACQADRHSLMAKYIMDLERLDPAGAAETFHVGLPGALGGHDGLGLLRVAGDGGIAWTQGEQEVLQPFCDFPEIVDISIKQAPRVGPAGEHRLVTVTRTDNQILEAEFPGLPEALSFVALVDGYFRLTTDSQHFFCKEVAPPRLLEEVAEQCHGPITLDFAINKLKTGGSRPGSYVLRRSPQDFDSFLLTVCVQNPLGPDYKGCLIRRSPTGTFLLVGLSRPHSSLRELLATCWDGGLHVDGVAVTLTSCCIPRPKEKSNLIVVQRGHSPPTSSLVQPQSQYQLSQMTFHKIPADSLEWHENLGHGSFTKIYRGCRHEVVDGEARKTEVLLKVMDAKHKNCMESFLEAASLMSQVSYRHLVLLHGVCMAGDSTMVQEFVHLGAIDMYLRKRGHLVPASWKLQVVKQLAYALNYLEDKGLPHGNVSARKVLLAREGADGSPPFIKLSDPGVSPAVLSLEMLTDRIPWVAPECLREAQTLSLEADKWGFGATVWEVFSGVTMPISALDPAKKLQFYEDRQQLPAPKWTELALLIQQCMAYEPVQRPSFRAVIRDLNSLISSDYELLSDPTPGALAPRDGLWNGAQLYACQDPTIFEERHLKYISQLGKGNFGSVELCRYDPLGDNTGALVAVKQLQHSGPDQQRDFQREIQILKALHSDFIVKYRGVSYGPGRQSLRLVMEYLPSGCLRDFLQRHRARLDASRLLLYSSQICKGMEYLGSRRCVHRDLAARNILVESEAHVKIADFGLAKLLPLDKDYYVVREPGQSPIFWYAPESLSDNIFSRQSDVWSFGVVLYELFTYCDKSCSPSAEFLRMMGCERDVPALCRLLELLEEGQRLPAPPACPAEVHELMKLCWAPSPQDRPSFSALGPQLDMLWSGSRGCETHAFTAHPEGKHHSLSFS
Method: Reactions were carried out in a kinase buffer containing 100 mM HEPES (pH 7.4), 1 mM DTT, 10 mM MgCl2, 25 mM NaCl, and 0.01% BSA. Substrate concentrations in the assay were 5 μM ATP (200 uCi/μmole ATP) and 1 μM poly(Glu)4Tyr. Reactions were carried out at 25° C. and 1 nM JAK3.
To each well of a 96 well polycarbonate plate was added 1.5 μl of a candidate JAK3 inhibitor along with 50 μl of kinase buffer containing 2 μM poly(Glu)4Tyr and 10 μM ATP. This was then mixed and 50 μl of kinase buffer containing 2 nM JAK3 enzyme was added to start the reaction. After 20 minutes at room temperature (25 C), the reaction was stopped with 50 μl of 20% trichloroacetic acid (TCA) that also contained 0.4 mM ATP. The entire contents of each well were then transferred to a 96 well glass fiber filter plate using a TomTek Cell Harvester. After washing, 60 μl of scintillation fluid was added and ^33P incorporation detected on a Perkin Elmer TopCount.

[1] = COLO 205, Colo205 cells, incubated for 96 hours

Chain of Aurora-1 (Aurora B) (Q96GD4 whole entry): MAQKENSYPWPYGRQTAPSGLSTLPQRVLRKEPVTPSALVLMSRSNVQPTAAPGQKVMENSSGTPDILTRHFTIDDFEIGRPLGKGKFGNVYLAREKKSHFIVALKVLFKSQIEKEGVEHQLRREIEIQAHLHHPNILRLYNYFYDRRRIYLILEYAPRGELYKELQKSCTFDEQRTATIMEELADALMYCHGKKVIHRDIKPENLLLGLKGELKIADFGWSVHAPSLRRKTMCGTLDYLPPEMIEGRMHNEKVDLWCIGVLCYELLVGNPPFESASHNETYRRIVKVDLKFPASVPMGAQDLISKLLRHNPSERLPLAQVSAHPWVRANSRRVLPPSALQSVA

SMILES | IC50 (Colo205 cells; [1]) [nM] | Ki (human Itk kinase) [nM] | IC50 (Colo205 cells; COLO 205, 96 h) [nM] | further results
Cc1cc(Nc2cc(N3CCC3)nc(Sc3ccc(NC(=O)c4c(F)cccc4F)cc3)n2)n[nH]1 [Compound 7] | ≤ 50 | ≤ 100 |  | 
Cc1cc(Nc2cc(N3CCC3)nc(Sc3ccc(NC(=O)c4ccccc4F)cc3)n2)n[nH]1 [Compound 9] | 50 to 1000 | 100 to 1000 |  | Ki (Aurora-1 (Aurora B)): ≤ 10 nM
Cc1cccc(C(=O)Nc2ccc(Sc3nc(Nc4cc(C)[nH]n4)cc(N4CCC4)n3)cc2)c1 [Compound 29] |  | 100 to 1000 | 50 to 1000 | 
Cc1cc(Nc2cc(N3CCC3)nc(Sc3ccc(NC(=O)c4ccccc4C)cc3)n2)n[nH]1 [Compound 31] |  | 100 to 1000 | 50 to 1000 | 
COc1ccccc1C(=O)Nc1ccc(Sc2nc(Nc3cc(C)[nH]n3)cc(N3CCC3)n2)cc1 [Compound 32] |  | 100 to 1000 | 50 to 1000 | 
Cc1cc(Nc2cc(N3CCC3)nc(Sc3ccc(NC(=O)c4cccc(F)c4F)cc3)n2)n[nH]1 [Compound 33] |  | 100 to 1000 | 50 to 1000 | Ki (Aurora-2 (Aurora A)): 1 to 5 nM
Cc1cc(Nc2cc(N3CCC3)nc(Sc3ccc(NC(=O)c4ccccc4OC(F)(F)F)cc3)n2)n[nH]1 [Compound 34] |  | 100 to 1000 | 50 to 1000 | 
Cc1cc(Nc2cc(N3CCC3)nc(Sc3ccc(NC(=O)c4c(Cl)cccc4Cl)cc3)n2)n[nH]1 [Compound 46] |  | ≤ 100 | 50 to 1000 | 
Cc1cc(Nc2cc(N3CCC3)nc(Sc3ccc(NC(=O)c4cccc(Cl)c4)cc3)n2)n[nH]1 [Compound 53] | 50 to 1000 | 100 to 1000 |  | 
Cc1cc(Nc2cc(N3CCC3)nc(Sc3ccc(NC(=O)c4ccccc4C(F)(F)F)cc3)n2)[nH]n1 [Compound 56] | ≤ 50 | 100 to 1000 |  | IC50 (Colo205 cells; COLO 205, Colo205 cells, incubated for 72 hours): 30 to 200 nM
O=C(Nc1ccc(Sc2nc(Nc3cc(C4CC4)[nH]n3)cc(N3CCC3)n2)cc1)c1ccccc1Cl [Compound 65] | 50 to 1000 | ≤ 100 |  | Ki (JAK3; read-out: JAK3 Ki value): ≤ 10 nM
O=C(Nc1ccc(Sc2nc(Nc3cc(CO)[nH]n3)cc(N3CCC3)n2)cc1)c1ccccc1Cl [Compound 75] |  | 1000 to 2000 |  | Ki (Aurora-2 (Aurora A)): 5 to 200 nM; Ki (Aurora-1 (Aurora B)): 50 to 2000 nM
Cc1cc(Nc2cc(N3CCC3)nc(Sc3ccc(NC(=O)c4cccc(C)c4Cl)cc3)n2)n[nH]1 [Compound 161] | 50 to 1000 | 100 to 1000 |  | Ki (JAK3; read-out: JAK3 Ki value): ≤ 10 nM
Cc1cc(Nc2cc(N3CCC3)nc(Sc3ccc(NC(=O)c4cc(Cl)ccc4Cl)cc3)n2)n[nH]1 [Compound 163] | 50 to 1000 | 100 to 1000 |  | 
CCc1cccc(C(=O)Nc2ccc(Sc3nc(Nc4cc(C)[nH]n4)cc(N4CCC4)n3)cc2)c1Cl [Compound 164] | ≤ 50 | 100 to 1000 |  | Ki (JAK3): ≤ 10 nM
